# Test results reported in article PMC9049325 (ChemMedChem, 2020).
# pIC50: −log10 of the molar value. Read-outs that look alike come from different tables or passages of the source.
# How the values were obtained:
# [1] = tested on: CB-R-HCT116 cells (p97 D649A/T688A); experiment: Cell proliferation, CB-5083 resistant HCT116 versus parental HCT116; format: cell-based; conditions: for sensitivity of CB-R-HCT116 compared with parental HCT116: cell proliferation
# [2] = tested on: CB-5083 resistant p97 mutants; experiment: p97 ATPase activity assay, panel of CB-5083 resistant mutants; format: biochemical; conditions: among CB-5083 resistant mutants
# seven cancer lines = experiment: Cancer cell proliferation assay; format: cell-based; conditions: for pIC50: read-out: IC50 for inhibition of proliferation
# CB-R-HCT116 cells = experiment: Western blot of UPR / p97 inhibition biomarkers, CB-R-HCT116; format: cell-based; conditions: CB-R-HCT116, 10 μM, 6 hours
# HCT116 cells = conditions: HCT116, 2.5 μM, 6 hours
# [3] = molecular target: p97 D649A/T688A double mutant; experiment: p97 ATPase activity assay, D649A/T688A double mutant; format: biochemical; conditions: protein concentration and reaction time each increased 4-fold
# A549 cells [4] = tested on: A549 cells
# WT p97 [5] = molecular target: T1, WT p97 (Homo sapiens, UniProt P55072); experiment: Thermal shift assay; format: binding; conditions: TSA, WT compared with N660K and T688A
# p97 T688A mutant = p97 T688A mutant (Homo sapiens, UniProt P55072, T688A); experiment: p97 ATPase activity assay, T688A mutant; format: biochemical
# WT p97 [6] = molecular target: T1, WT p97; experiment: p97 ATPase activity assay, WT; format: biochemical
# p97 ATPase = p97 ATPase (Homo sapiens, UniProt P55072); experiment: Steady-state kinetic analysis of p97 ATPase inhibition; format: biochemical; conditions: ten ATP concentrations, 2 or 3 inhibitor concentrations
# A549 cells [7] = experiment: Intracellular compound concentration determination
# T1 sequence (P55072 whole entry): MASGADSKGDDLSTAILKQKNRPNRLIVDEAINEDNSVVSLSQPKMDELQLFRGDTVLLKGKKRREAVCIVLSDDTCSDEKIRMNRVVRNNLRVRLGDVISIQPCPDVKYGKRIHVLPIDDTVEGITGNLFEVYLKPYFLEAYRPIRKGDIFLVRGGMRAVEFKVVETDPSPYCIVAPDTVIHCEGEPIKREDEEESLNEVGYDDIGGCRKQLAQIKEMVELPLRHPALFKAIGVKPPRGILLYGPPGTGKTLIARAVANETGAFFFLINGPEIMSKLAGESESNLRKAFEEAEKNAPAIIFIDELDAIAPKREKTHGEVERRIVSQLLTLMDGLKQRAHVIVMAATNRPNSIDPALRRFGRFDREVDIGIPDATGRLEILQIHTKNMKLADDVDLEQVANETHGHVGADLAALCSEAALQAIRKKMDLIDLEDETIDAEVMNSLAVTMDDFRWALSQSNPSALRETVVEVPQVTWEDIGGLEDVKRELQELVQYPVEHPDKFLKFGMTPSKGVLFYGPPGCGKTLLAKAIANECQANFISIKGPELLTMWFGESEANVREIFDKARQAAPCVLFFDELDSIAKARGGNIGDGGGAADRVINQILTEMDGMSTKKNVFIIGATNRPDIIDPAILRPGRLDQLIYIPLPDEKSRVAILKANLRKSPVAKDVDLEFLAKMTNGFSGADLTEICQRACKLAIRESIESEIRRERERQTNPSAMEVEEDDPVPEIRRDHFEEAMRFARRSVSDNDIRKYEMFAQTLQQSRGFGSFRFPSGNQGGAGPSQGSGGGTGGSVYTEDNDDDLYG
# Sequence of p97 ATPase (P55072 whole entry): as above
# Sequence of p97 T688A mutant (P55072 whole entry T688A): as the sequence (P55072 whole entry) above, with T688A counted along it
SMILES,sensitivity of CB-R-HCT116 compared with parental HCT116 [1],mutants most resistant to inhibition [2],pIC50 (seven cancer lines),IC50 increase toward D649A/T688A vs WT p97 [3],mechanism of inhibition (p97 ATPase),further results
Cc1cc2c(C(N)=O)cccc2n1-c1nc2c(c(NCc3ccccc3)n1)COCC2 [CB-5083],unaffected,N660K and T688A are the most resistant,5.40 to 6.30,about 400 fold,,"inhibition of proliferation ([1]; CB-R-HCT116, 10.5 μM): only slightly inhibited; changes in biomarkers (K48 ubiquitination, ATF4, CHOP, p62) (CB-R-HCT116 cells): no effects on these biomarkers; changes in biomarkers (K48 ubiquitination, ATF4, CHOP, p62) (HCT116 cells): accumulation of K48 ubiquitination, ATF4 and CHOP"
CC(C)N1CCN(CCNC2CCN(c3cccc(-c4cc5cc(F)ccc5[nH]4)c3)CC2)CC1 [UPCDC-30245],similarly sensitive,,,2 fold,noncompetitive inhibition,"intracellular concentration reached (A549 cells [4]): millimolar; time to steady-state intracellular concentration (A549 cells [4]): 3 h; effect on Tm of WT, N660K and T688A p97 (WT p97 [5]): did not stabilize WT or either mutant p97 protein; potency at inhibiting cell proliferation compared with NMS-873 (seven cancer lines; HT29 cells): more potent; fold resistance of T688A (IC50 increase vs WT) (p97 T688A mutant): 3 fold; fold less potent than NMS-873 in the ATPase activity assay (WT p97 [6]; WT p97): 12 fold; pIC50 (WT p97 [6]; read-out: IC50 toward WT p97 ATPase activity, biochemical assay): 6.52; intracellular concentration relative to NMS-873 (A549 cells [7]; 5 μM): 12 fold"
c1ccc(CNc2nc(N3CCOc4ccccc43)nc3c2CCCC3)cc1 [ML241],,N660K and T688A are the most resistant,,,,
Cc1cc(OCc2nnc(SC3CCCC3)n2-c2cccnc2)ccc1-c1ccc(S(C)(=O)=O)cc1 [NMS-873],slightly more sensitive,,5.40 to 6.30,,noncompetitive inhibitor,intracellular concentration reached (A549 cells [7]): millimolar
COc1cccc2c(NCc3ccccc3)nc(-n3c(N)nc4ccccc43)nc12 [ML240],,N660K and T688A are the most resistant,,,,
